Assay results as given in ChEMBL document CHEMBL1201862, “PubChem BioAssay data set” (2004).
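Protocol summary: plate cells (96-well), add compound at 5 concentrations, incubate 48 h, interpolate endpoints linearly. At the GI50, growth is halved.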 Activity calls are given as the source filed them. No stated cut-off is given here; in the data, active = GI50 up to about 1.1 µM and inactive = higher.

How the values were obtained:
Assay in all cases: NCI tumour cell line growth inhibition, 48 h
K562 = test system: K562
DLD-1 = test system: DLD-1
UACC-62 = test system: UACC-62
HCT-15 = test system: HCT-15
NCI-H226 = test system: NCI-H226
UACC-257 = test system: UACC-257
NCI-H522 = test system: NCI-H522
TK-10 = test system: TK-10
DMS-114 = test system: DMS-114
KM-20L2 = test system: KM-20L2
OVCAR-8 = test system: OVCAR-8
LXFL 529 = test system: LXFL 529
M14 = test system: M14
HCC 2998 = test system: HCC 2998
HOP-62 = test system: HOP-62
RPMI-8226 = test system: RPMI-8226
SK-MEL-2 = test system: SK-MEL-2
SF-268 = test system: SF-268
KM12 = test system: KM12
ACHN = test system: ACHN
HOP-18 = test system: HOP-18
U-251 = test system: U-251
UO-31 = test system: UO-31
SR = test system: SR
HL-60 = test system: HL-60
CCRF-CEM = test system: CCRF-CEM
NCI-H23 = test system: NCI-H23
Malme-3M = test system: Malme-3M
COLO 205 = test system: COLO 205
786-0 = test system: 786-0
SN12C = test system: SN12C
LOX IMVI = test system: LOX IMVI
XF498 = test system: XF498
MOLT-4 = test system: MOLT-4
HT-29 = test system: HT-29
DMS-273 = test system: DMS-273
NCI-H460 = test system: NCI-H460
OVCAR-5 = test system: OVCAR-5
SF-539 = test system: SF-539
SK-MEL-28 = test system: SK-MEL-28
IGROV-1 = test system: IGROV-1
RXF 393 = test system: RXF 393
SNB-75 = test system: SNB-75
SW-620 = test system: SW-620
HCT-116 = test system: HCT-116
HOP-92 = test system: HOP-92
SK-MEL-5 = test system: SK-MEL-5
SK-OV-3 = test system: SK-OV-3
SNB-78 = test system: SNB-78
OVCAR-4 = test system: OVCAR-4
EKVX = test system: EKVX
CAKI-1 = test system: CAKI-1
M19-MEL = test system: M19-MEL
SF-295 = test system: SF-295
OVCAR-3 = test system: OVCAR-3
A549 = test system: A549

Measured: GI50

COc1cc(C2c3cc4c(cc3[C@H](NS(C)(=O)=O)C3COC(=O)[C@H]23)OCO4)cc(OC)c1OC (some centres undefined)
inactive: TK-10 > 100 µM | SK-MEL-2 > 100 µM | HOP-18 > 100 µM | UO-31 9.35 µM | Malme-3M > 100 µM | OVCAR-5 > 100 µM
active: K562 0.415 µM | DLD-1 0.592 µM | UACC-62 0.162 µM | NCI-H226 0.177 µM | UACC-257 0.612 µM | NCI-H522 0.0671 µM | DMS-114 0.226 µM | KM-20L2 0.162 µM | OVCAR-8 0.439 µM | LXFL 529 0.731 µM | M14 0.426 µM | HCC 2998 0.435 µM | HOP-62 0.177 µM | RPMI-8226 0.394 µM | SF-268 0.778 µM | KM12 0.108 µM | ACHN 0.51 µM | U-251 0.327 µM | SR 0.251 µM | HL-60 0.253 µM | CCRF-CEM 0.444 µM | NCI-H23 0.223 µM | COLO 205 0.186 µM | 786-0 0.471 µM | SN12C 0.482 µM | LOX IMVI 0.419 µM | XF498 0.56 µM | MOLT-4 0.418 µM | HT-29 0.34 µM | DMS-273 0.297 µM | NCI-H460 0.615 µM | SF-539 0.165 µM
0.448 µM: HCT-15

CCOC(=O)CN(Cn1cncn1)Cn1cncn1
22 µM: HCT-15
inactive: K562 40.6 µM | SK-MEL-28 18.4 µM | DLD-1 34.9 µM | UACC-62 33.3 µM | IGROV-1 > 100 µM | NCI-H226 28.1 µM | UACC-257 17.6 µM | RXF 393 14.8 µM | TK-10 50.7 µM | SNB-75 20.6 µM | KM-20L2 22.5 µM | SW-620 24.1 µM | OVCAR-8 24.7 µM | LXFL 529 40.2 µM | M14 > 10 µM | HCT-116 30.8 µM | HCC 2998 33.2 µM | HOP-62 > 100 µM | RPMI-8226 55.2 µM | SK-MEL-2 38.2 µM | HOP-92 > 100 µM | SK-MEL-5 24.2 µM | SK-OV-3 > 100 µM | KM12 20.2 µM | ACHN 36.6 µM | HOP-18 32.8 µM | SNB-78 91 µM | OVCAR-4 46.8 µM | EKVX 43.8 µM | CAKI-1 56 µM | U-251 17.9 µM | UO-31 > 100 µM | HL-60 35.7 µM | CCRF-CEM 47 µM | Malme-3M 52 µM | COLO 205 36.9 µM | 786-0 58.6 µM | SN12C 29.4 µM | M19-MEL 38.7 µM | LOX IMVI 21 µM | XF498 20.4 µM | MOLT-4 45.4 µM | SF-295 39.4 µM | HT-29 34.6 µM | DMS-273 20.5 µM | OVCAR-3 19.6 µM | NCI-H460 24.9 µM | OVCAR-5 > 100 µM | A549 40.6 µM
